# Reference: patent publication US12486304B2, “Peptide ligand targeting carbonic anhydrase IX, peptide construct comprising same, and uses thereof” (priority 2022, dated 2025)
# *1 amine or outer side, *2 acyl side, *3 side chain or, on linkers, in order; H or OH if unused. Where a SMILES comes first, the peptide text is derived from it. [ ]: non-standard residue; d: D form. X1 = NS(=O)(=O)c1ccc(-c2cn(CCCC[C@H](N[*:1])C(=O)[*:2])nn2)cc1
# Settings: human, 168 h
# Description: A solution of the peptide structure diluted to a final concentration of 50 μm in 1 mL of 100% pure human serum (Cat #S1, Merk) or plasma (Cat #70039.1, [sequence] Technologies) [or 100% pure mouse serum (Sigma, Cat #S7273) or plasma (Rockland, Cat #D508-06-0050)] was divided into 100 μL. Then, while stored at 37° C., analysis was performed once a day for 7 days using the LC-MS (1260 Infinity II, Infinity Lab LC/MSD, Aglient) equipped with the Agilent Poroshell 120 EC-C18 column (4.6×50 mm, 2.7 μm). Before injecting the sample into the LC, 100 μL of ACN was added to the serum or plasma solution containing the peptides, then put into the centrifuge and spun to settle the precipitate, and only 10 μL of the supernatant was used for analysis.
compound,measurement,value
C[C@H](O)[C@H]1NC(=O)[C@@H](Cc2ccccc2)NC(=O)[C@@H](Cc2c[nH]cn2)NC(=O)[C@@H](Cc2ccccc2)NC(=O)[C@@H](CCCNC(=N)N)NC(=O)[C@@H](CCCNC(=N)N)NC(=O)[C@H](CCCCn2cc(-c3ccc(S(N)(=O)=O)cc3)nn2)NC(=O)[C@H](CCC(N)=O)NC(=O)CNC(=O)[C@@H](Cc2c[nH]cn2)NC1=O [No. 35] (cyclo(Q[X1][dR][dR][dF][dH][dF][dT][dH]G)),Stability in plasma,not degraded at all and was completely maintained even after 6 days
